Earlier results in US12116608B2, “Extended metabolism methods for increasing and extracting metabolites from algae and microorganisms” (Synergraze Inc., priority 2022, dated 2024).

Conditions: general description

Structure (SMILES): BrC(Br)Br [bromoform]
- solubility in water: soluble in water
